We go through 5 compounds from ChEMBL document CHEMBL6121008, “New series of 3-pyridyl-1,3-thiazoles: In vitro and in vivo anti-Trypanosomatidae profile, in vitro and in silico mechanism of action approach” (Eur J Med Chem, 2025).

The subject of data set [1] is Trypanosoma cruzi. Put plainly: Antiparasitic activity against trypomastigote form of Trypanosoma cruzi Tulahuen expressing Escherichia coli beta-galactosidase infected in mouse L929 cells assessed as reduction in parasitic growth using CPRG as substrate pretreated with compound for 96 hrs followed by substrate addition and measured after 16 to 20 hrs by Spectrophotometric analysis. The data set is classed as functional, organism-based.

Data set [2] is described as follows: Cytotoxicity against mouse L929 cells assessed as inhibition of cell viability incubated for 96 hrs by MTT assay. It is filed as toxicity, cell-based. Background: Formazan colour is commonly taken as a measure of viable cells.
Data set [3] can be described thus: Selectivity index, ratio of CC50 for mouse L929 cells to IC50 for antiparasitic activity against trypomastigote and amastigote form of Trypanosoma cruzi Tulahuen expressing Escherichia coli beta-galactosidase infected in mouse L929 cells. The data set is classed as toxicity. The following applies: read-out: Selectivity Index.
Data set [4] in a line: Acute toxicity in male Swiss-Webster mouse infected with Trypanosoma cruzi Y assessed as mortality at 5 to 200 mg/kg, po measured after 48 hrs. It is filed as organism-based. The following applies: in vivo, dose 5-200 mg/kg.
The nature of data set [5]: Acute toxicity in male Swiss-Webster mouse infected with Trypanosoma cruzi Y assessed as side effects at 5 to 200 mg/kg, po measured after 48 hrs. The data set is classed as organism-based. The following applies: in vivo, dose 5-200 mg/kg.
Data set [6] can be described thus: Acute toxicity in female Swiss-Webster mouse infected with Trypanosoma cruzi Y assessed as mortality at 5 to 200 mg/kg, po measured after 48 hrs. The data set is classed as organism-based. The following applies: in vivo, dose 5-200 mg/kg.
A short description of data set [7]: Acute toxicity in female Swiss-Webster mouse infected with Trypanosoma cruzi Y assessed as side effects at 5 to 200 mg/kg, po measured after 48 hrs. The data set is classed as organism-based. Conditions: in vivo, dose 5-200 mg/kg.
In data set [8] the test system is Trypanosoma cruzi. Put plainly: Antiparasitic activity against Trypanosoma cruzi Y trypomastigotes infected in male Swiss mouse assessed as reduction in parasitemia at 100 mg/kg/day, po pre-infected with parasite followed by compound addition and measured at 1 to 5 days post-infection by microscopic analysis. It is filed as functional, organism-based. The following applies: time 1-5 day.

The nature of data set [9]: Toxicity in male Swiss mouse infected with Trypanosoma cruzi Y trypomastigotes assessed as mortality at 100 mg/kg/day, po pre-infected with parasite followed by compound addition and measured after 5 to 9 days relative to control. Conditions: in vivo, po, 100 mg/kg, time 5-9 day. It is filed as organism-based.
The subject of data set [10] is Trypanosoma cruzi. Put plainly: Antiparasitic activity against amastigote form of Trypanosoma cruzi Tulahuen expressing Escherichia coli beta-galactosidase infected in mouse L929 cells assessed as reduction in parasitic growth using CPRG as substrate pretreated with compound for 96 hrs followed by substrate addition and measured after 16 to 20 hrs by Spectrophotometric analysis. It is filed as functional, organism-based.

Another data set relates to Mitochondrial membrane. The data set is described as follows: Induction of mitochondrial membrane depolarization in trypomastigote form of Trypanosoma cruzi Y at IC50 incubated for 24 hrs by Rhodamine 123 staining based flow cytometric analysis. The data set is classed as cell membranes. (In general: A flow cytometer gives signals particle by particle.)
Another data set relates to Cell membrane. The data set is described as follows: Induction of cell membrane damage in trypomastigote form of Trypanosoma cruzi Y assessed as decrease in red fluorescence intensity incubated for 24 hrs by acridine orange staining based flow cytometric analysis. The data set is classed as subcellular.
Data set [11] relates to Trypanosoma cruzi. The data set is described as follows: Antiparasitic activity against trypomastigote form of Trypanosoma cruzi Y assessed as appearance of twisted bodies by Electron micrographic analysis. It is filed as functional, organism-based.
The subject of data set [12] is Trypanosoma cruzi. The data set is described as follows: Antiparasitic activity against trypomastigote form of Trypanosoma cruzi Y assessed as presence of bubbles by Electron micrographic analysis. The data set is classed as functional, organism-based.
Data set [13] has as its system Trypanosoma cruzi. The data set is described as follows: Antiparasitic activity against trypomastigote form of Trypanosoma cruzi Y assessed as appearance of filamentous structures scattered across the membrane by Electron micrographic analysis. The data set is classed as functional, organism-based.
Data set [14] relates to Trypanosoma cruzi. Put plainly: Antiparasitic activity against trypomastigote form of Trypanosoma cruzi Y assessed as appearance of swollen cells with cytoplasmic content leakage by Electron micrographic analysis. The data set is classed as functional, organism-based.
The test system of data set [15] is Trypanosoma cruzi. The data set is described as follows: Antiparasitic activity against trypomastigote form of Trypanosoma cruzi Y assessed as appearance of ruptured cells with cytoplasmic content leakage by Electron micrographic analysis. The data set is classed as functional, organism-based.
Data set [16] deals with RAW264.7. Put plainly: Immunomodulatory activity in mouse RAW264.7 cells assessed as increase in IL-6 production at 1 to 4 times IC50 incubated for 24 to 144 hrs by flow cytometric analysis. The data set is classed as functional, cell-based. The following applies: time 24-144 hrs.
The subject of data set [17] is RAW264.7. The data set is described as follows: Immunomodulatory activity in mouse RAW264.7 cells assessed as decrease in IL-10 production at 1 to 4 times IC50 incubated for 24 to 144 hrs by flow cytometric analysis. It is filed as functional, cell-based. The following applies: time 24-144 hrs.
Data set [18] deals with RAW264.7. The data set is described as follows: Immunomodulatory activity in mouse RAW264.7 cells assessed as decrease in TNF production at 1 to 4 times IC50 incubated for 24 to 144 hrs by flow cytometric analysis. The data set is classed as functional, cell-based. The following applies: time 24-144 hrs.
Data set [19] concerns Leishmania amazonensis. The data set is described as follows: Antiparasitic activity against Leishmania amazonensis WHOM/00 LTB 0016 promastigote expressing Escherichia coli beta-galactosidase assessed as reduction in parasitic growth using CPRG as substrate preincubated with compound for 72 hrs followed by substrate addition and measured after 10 mins by Spectrophotometric analysis. The following applies: for pIC50: Leishmania amazonensis, WHOM/00 LTB 0016, read-out: IC50. It is filed as functional, organism-based.

Data set [20] concerns Leishmania infantum. The data set is described as follows: Antiparasitic activity against Leishmania infantum MHOM/MA/67/ITMAP-263 promastigote expressing Escherichia coli beta-galactosidase assessed as reduction in parasitic growth using CPRG as substrate preincubated with compound for 72 hrs followed by substrate addition and measured after 10 mins by Spectrophotometric analysis. The data set is classed as functional, organism-based. The following applies: for pIC50: Leishmania infantum, MHOM/MA/67/ITMAP-263, read-out: IC50.

In data set [21] the test system is Leishmania amazonensis. Put plainly: Antiparasitic activity against Leishmania amazonensis amastigote expressing Escherichia coli beta-galactosidase infected in mouse RAW264.7 cells assessed as reduction in parasitic growth using CPRG as substrate preincubated with compound for 24 hrs followed by substrate addition and measured after 2 to 6 hrs by Spectrophotometric analysis. The data set is classed as functional, organism-based. The following applies: Leishmania amazonensis, RAW264.7; read-out: IC50.

Data set [22] concerns Leishmania infantum. Put plainly: Antiparasitic activity against Leishmania infantum amastigote expressing Escherichia coli beta-galactosidase infected in mouse RAW264.7 cells assessed as reduction in parasitic growth using CPRG as substrate preincubated with compound for 24 hrs followed by substrate addition and measured after 2 to 6 hrs by Spectrophotometric analysis. It is filed as functional, organism-based. Conditions: for pIC50: Leishmania infantum, RAW264.7, read-out: IC50.

Data set [23] in a line: Cytotoxicity against mouse RAW264.7 cells assessed as inhibition of cell viability incubated for 48 hrs by MTT assay. The data set is classed as toxicity, cell-based.
Data set [24] is described as follows: Selectivity index, ratio of CC50 for mouse RAW264.7 cells to IC50 for antiparasitic activity against Leishmania infantum MHOM/MA/67/ITMAP-263 promastigote expressing Escherichia coli beta-galactosidase. The following applies: read-out: Selectivity Index. It is filed as toxicity.
Data set [25] in a line: Selectivity index, ratio of CC50 for mouse RAW264.7 cells to IC50 for antiparasitic activity against Leishmania infantum amastigote expressing Escherichia coli beta-galactosidase infected in mouse RAW264.7 cells. It is filed as toxicity. Conditions: read-out: Selectivity Index.
Data set [26] in a line: Selectivity index, ratio of CC50 for mouse RAW264.7 cells to IC50 for antiparasitic activity against Leishmania amazonensis WHOM/00 LTB 0016 promastigote expressing Escherichia coli beta-galactosidase. It is filed as toxicity. Conditions: read-out: Selectivity Index.
A short description of data set [27]: Selectivity index, ratio of CC50 for mouse RAW264.7 cells to IC50 for antiparasitic activity against Leishmania amazonensis amastigote expressing Escherichia coli beta-galactosidase infected in mouse RAW264.7 cells. It is filed as toxicity. The following applies: read-out: Selectivity Index.

pIC50: −log10 of the molar value. The source made the active and inactive calls. The calls are words filed in the database; no cut-off is given here.

`C/C(=N\Nc1nc(-c2ccccc2)cs1)c1cccnc1`: the negative logarithm of the IC50 (pIC50) – broadly, the IC50 on a negative log10 scale, so that one unit is a factor of ten – in the data set with Trypanosoma cruzi [1] is 6.40; with Trypanosoma cruzi [10] it was 6.40; with Leishmania amazonensis [19], 3.89; in the data set on Leishmania infantum [20], 5.27; with Leishmania amazonensis [21], 5.00; with Leishmania infantum [22] it was 3.99. For the same compound, the CC50 – broadly, the concentration at which the toxic effect on the cells reaches its halfway point – at 96 h in [2] came to 212 µM. Moreover, the selectivity ratio turned out to be 531 in data set [3]; 3.4 in data set [24]; 0.2 in data set [25]; 0.1 in [26]; 1.9 in data set [27]. For the same compound, the Activity entry in data set [4] is “Non-toxic”; in data set [5], “Non-toxic”; in data set [6] it was “Non-toxic”; in [7], “Non-toxic”; in data set [9], “Toxic”; with Cell membrane, “Dose-dependent-effect”. Also, the Activity entry in the data set on Trypanosoma cruzi [11], in the data set on Trypanosoma cruzi [12], in the data set on Trypanosoma cruzi [13], in the data set on Trypanosoma cruzi [14] and with Trypanosoma cruzi [15] was “Dose-dependent-effect” in each case. In addition, the outcome in the data set on Trypanosoma cruzi [8] was inactive. Moreover, the outcome in the data set with Mitochondrial membrane, in the data set with RAW264.7 [16], with RAW264.7 [17] and in the data set with RAW264.7 [18] was Active. The CC50 at 48 h in data set [23] came to 18.3 µM.

`C/C(=N\N=c1/[nH]c(-c2ccc(C)cc2)cs1)c1cccnc1`: the negative-log IC50 (pIC50) is 5.41 with Trypanosoma cruzi [1], 5.41 with Trypanosoma cruzi [10], < 3.49 with Leishmania amazonensis [19] and 4.48 in the data set with Leishmania amazonensis [21]. Further, the 50% cytotoxic concentration (CC50) at 96 h in data set [2] turned out to be 293 µM. The selectivity ratio in data set [3] is 75.1; in data set [26], < 0.1; in data set [27] it was 0.8. Besides, the Activity entry with Trypanosoma cruzi [11] is “Dose-dependent-effect”. Besides, the IC50 result in the data set on Leishmania infantum [20] and in the data set on Leishmania infantum [22] (raw264.7) was “Not_active” throughout. The half-maximal cytotoxic concentration (CC50) at 48 h in data set [23] is 25 µM.

Turning to `COc1ccc(-c2cs/c(=N/N=C(\C)c3cccnc3)[nH]2)cc1`, the pIC50 is 6.52 in the data set with Trypanosoma cruzi [1]; 6.52 in the data set on Trypanosoma cruzi [10]; 3.76 in the data set with Leishmania infantum [20]; 5.11 in the data set on Leishmania amazonensis [21]; 4.03 in the data set on Leishmania infantum [22]. Also, in data set [2], the CC50 at 96 h stood at 19.4 µM. Also, the selectivity ratio in data set [3] stood at 64.7; in data set [24] it was 0.1; in data set [25] it was 0.2; in [27], 2.2. For the same compound, the Activity result in data set [4] was “Non-toxic”; in data set [5] it was “Non-toxic”; in data set [6], “Non-toxic”; in data set [7] it was “Non-toxic”; in [9] it was “Toxic”; in the data set with Cell membrane it was “Dose-dependent-effect”. Further, the Activity result in the data set on Trypanosoma cruzi [11], in the data set on Trypanosoma cruzi [12], in the data set with Trypanosoma cruzi [13], with Trypanosoma cruzi [14] and in the data set on Trypanosoma cruzi [15] was “Dose-dependent-effect” each time. Further, the outcome in the data set with Trypanosoma cruzi [8] and with RAW264.7 [18] was inactive. For the same compound, the outcome with Mitochondrial membrane, in the data set on RAW264.7 [16] and with RAW264.7 [17] was Active. For the same compound, in the data set with Leishmania amazonensis [19], the IC50 entry was “Not_active”. Besides, the CC50 at 48 h in [23] amounted to 16.6 µM.

On to `C/C(=N\N=c1\scc(-c2ccc([N+](=O)[O-])cc2)n1-c1ccccc1)c1cccnc1`, for which the pIC50 is 5.54 with Trypanosoma cruzi [1]; 5.54 in the data set with Trypanosoma cruzi [10]; 4.73 in the data set on Leishmania amazonensis [19]; 3.93 with Leishmania infantum [20]; 5.11 with Leishmania amazonensis [21]; 5.04 in the data set on Leishmania infantum [22]. The half-maximal cytotoxic concentration (CC50) at 96 h in data set [2] amounted to 25.8 µM. The selectivity ratio in [3] is 8.9; in data set [24], 0.2; in data set [25] it was 2.4; in [26], 1.2; in [27], 2.9. Besides, in data set [23], the 50% cytotoxic concentration (CC50) at 48 h was 22.1 µM.

Take `C/C(=N\N=c1\scc(-c2ccc(C)cc2)n1-c1ccccc1)c1cccnc1`: the pIC50 in the data set with Trypanosoma cruzi [1] was 5.47; in the data set on Trypanosoma cruzi [10], 5.47; in the data set on Leishmania amazonensis [19], 5.36; with Leishmania infantum [20] it was 4.83; in the data set on Leishmania amazonensis [21] it was 5.14; in the data set on Leishmania infantum [22], 4.79. Moreover, the CC50 at 96 h in data set [2] amounted to 7.3 µM. The selectivity ratio stood at 2.1 in data set [3]; 1.3 in [24]; 1.2 in data set [25]; 4.2 in data set [26]; 2.6 in data set [27]. The cytotoxic concentration (CC50) at 48 h in data set [23] was 18.7 µM.
